For 20 compounds, Ki and GI50 results are on record in US10894798B2, “Substituted dihydropyrrolopyrazole derivative” (UBE INDUSTRIES, LTD., priority 2015, dated 2021).

Molecules are shown by their SMILES.

The target in one experiment is T1, CDK7 (Homo sapiens, UniProt P50613).
T1 construct: purchased Carna Biosciences, Inc. 04-108
Nature of the experiment: CDK7 enzyme inhibition test. Particulars: [γ-33P]ATP, MBP substrate, 60 min preincubation at 25°C; Ki=IC50/(1+S/Km); read-out: Ki value of CDK7 inhibitory activity. Format: biochemical. Here is the method: The preparation of a buffer solution was performed by mixing a N-2-hydroxyethylpiperazine-N′-2-ethanesulfonic acid buffer solution (HEPES buffer solution) (pH 7.4), dithiothreitol (DTT), Triton X-100, and magnesium chloride (MgCl2). A 500 μM [γ-^33P]ATP solution was used by diluting a 10 mM ATP solution and a commercially available [γ-^33P]ATP solution (manufactured by PerkinElmer, Inc., Code No. NEG-302H) with the buffer solution. A CDK7 solution was used by diluting commercially available CDK7 (manufactured by Carna Biosciences, Inc., Catalog No. 04-108) with the buffer solution. A substrate solution was used by diluting myelin basic protein (MBP) with the buffer solution. As for the preparation of a reaction solution, the buffer solution, the CDK7 solution, and the substrate solution were mixed at 4° C. to obtain a reaction solution.
CDK7 enzyme reaction was performed by adding 5 μL of a test compound solution prepared with 10% DMSO/90% injectable distilled water, and 40 μL of the reaction solution to a 1.5 mL microtube at 4° C. and preincubating the microtube at 25° C. for 60 minutes in a water bath incubator. Subsequently, reaction was performed at 30° C. for 20 minutes by adding 5 μL of the 500 μM [γ-^33P]ATP solution. After the reaction, a 10% aqueous trichloroacetic acid (TCA) solution was added to each microtube while cooled to 4° C., and mixed in a vortex mixer to terminate the reaction. The resultant was left standing at 4° C. for 10 minutes and then centrifuged, and the supernatant was discarded. Next, a 2% aqueous trichloroacetic acid (TCA) solution was added thereto, mixed in a vortex mixer, and then centrifuged, and the supernatant was discarded. This washing operation was performed twice. After the washing, precipitates were dissolved in a 1 N aqueous sodium hydroxide (NaOH) solution, and the energy quantity (radioactivity) of the reaction product was measured with a liquid scintillation counter.
The calculation of the inhibitory activity of the test compound against CDK7 was performed as a test compound concentration inhibiting 50% of the amount of ^33P bound to MBP (IC50 value) by using EXSUS (version 8.1.0, manufactured by CAC Exicare Corp.).
The calculation of a Ki value was performed according to the following calculation expression wherein S represents the concentration of ATP contained in the reaction solution, and Km represents a Michaelis-Menten constant: Ki=IC50/(1+S/Km)

The test system of experiment [1] is human large intestine cancer cell line (HCT-116). Put plainly: Human large intestine cancer (HCT-116) cell growth inhibition test. Particulars: HCT-116, 72 h, culture for 3 days, sulforhodamine B, read-out: GI50 value, HCT-116 cell growth inhibition. Format: cell-based. Here is the method: The measurement of a human large intestine cancer cell growth inhibitory effect was carried out by modifying the method of Simak et al. (Cancer Research, 69, 6208 (2009)).
A human large intestine cancer cell line (HCT-116, obtained from DS Pharma Biomedical Co., Ltd.) was cultured in a McCoy's 5A medium (manufactured by Thermo Fisher Scientific, Inc.) containing 10% fetal bovine serum (FBS) (manufactured by Thermo Fisher Scientific, Inc.) and 1% penicillin/streptomycin/amphotericin B (manufactured by Thermo Fisher Scientific, Inc.) and inoculated at 0.5 to 2.0×10^3 cells/well in a 96-well plate. After overnight culture in a carbon dioxide incubator, the medium was replaced with a fresh medium on the next day, and a test compound dissolved in DMSO (final DMSO concentration: 0.1%) was added thereto and left standing in a carbon dioxide incubator. After culture for 3 days, the absorbance thereof was measured by using In Vitro Toxicology Assay Kit Sulforhodamine B based (manufactured by Sigma-Aldrich Co. LLC.).
The rate of inhibition of cell growth at each concentration was calculated from the test compound concentration and the absorbance of sulforhodamine B, and the concentration of the test compound necessary for inhibiting 50% of cell growth (GI50 value) was calculated by using EXSUS (version 8.1.0, manufactured by CAC Exicare Corp.).

T1 sequence (P50613 whole entry): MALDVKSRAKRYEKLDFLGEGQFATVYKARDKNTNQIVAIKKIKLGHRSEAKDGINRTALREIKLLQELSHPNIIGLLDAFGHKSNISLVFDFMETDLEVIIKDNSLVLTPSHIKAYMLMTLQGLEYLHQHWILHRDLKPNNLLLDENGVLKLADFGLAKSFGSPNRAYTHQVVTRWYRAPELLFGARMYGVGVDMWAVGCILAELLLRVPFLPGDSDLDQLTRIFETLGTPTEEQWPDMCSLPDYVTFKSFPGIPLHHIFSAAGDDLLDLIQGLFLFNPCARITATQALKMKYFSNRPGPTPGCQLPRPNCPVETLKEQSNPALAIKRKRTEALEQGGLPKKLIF
T1 sequence (P51946 whole entry partner): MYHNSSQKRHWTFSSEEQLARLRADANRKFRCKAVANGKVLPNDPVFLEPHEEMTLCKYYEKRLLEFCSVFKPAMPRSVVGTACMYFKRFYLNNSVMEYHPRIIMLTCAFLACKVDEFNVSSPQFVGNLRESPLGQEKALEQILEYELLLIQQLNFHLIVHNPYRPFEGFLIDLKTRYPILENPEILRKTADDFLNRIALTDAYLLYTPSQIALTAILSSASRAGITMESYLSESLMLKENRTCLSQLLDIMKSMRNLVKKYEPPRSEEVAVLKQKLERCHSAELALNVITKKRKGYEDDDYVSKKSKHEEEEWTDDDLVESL
T1 sequence (P51948 whole entry partner): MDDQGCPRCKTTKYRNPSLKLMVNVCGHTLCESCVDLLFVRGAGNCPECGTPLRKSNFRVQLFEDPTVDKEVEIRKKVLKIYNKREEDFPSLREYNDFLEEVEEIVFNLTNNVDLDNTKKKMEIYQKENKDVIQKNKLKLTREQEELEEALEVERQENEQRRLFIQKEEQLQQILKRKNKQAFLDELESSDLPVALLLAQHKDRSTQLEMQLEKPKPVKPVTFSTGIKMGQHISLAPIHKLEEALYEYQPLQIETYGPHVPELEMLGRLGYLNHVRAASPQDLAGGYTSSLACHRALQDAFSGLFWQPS

Broadly, the Ki is a measure of affinity in units of concentration, obtained from inhibition or displacement. `CN(C(=O)N1Cc2c(NC(=O)C3([Si](C)(C)C)CCC3)n[nH]c2C1(C)C)c1ccccc1` [I-965, N,6,6-Trimethyl-N-phenyl-3-[1-(trimethylsilyl)cyclobutanecarboxamido]-4,6-dihydropyrrolo[3,4-c]pyrazole-5(1H)-carboxamide]: on CDK7, the inhibitory constant (Ki) is ≤ 0.05 µM. Still for that read-out and setting: in the case of `Cc1cccc(Br)c1NC(=O)N1Cc2c(NC(=O)C(C)(C)[Si](C)(C)C)n[nH]c2C1(C)C` [II-290, N-(2-Bromo-6-methylphenyl)-6,6-dimethyl-3-[2-methyl-2-(trimethylsilyl)propanamido]-4,6-dihydropyrrolo[3,4-c]pyrazole-5(1H)-carboxamide] it was ≤ 0.05 µM. Usually GI50 stands for the concentration at which growth is held to half of that of the control. In the case of `Cc1cccc(Br)c1NC(=O)N1Cc2c(NC(=O)C3([Si](C)(C)C)CC3)n[nH]c2C1(C)C` [III-299, N-(2-Bromo-6-methylphenyl)-6,6-dimethyl-3-[1-(trimethylsilyl)cyclopropanecarboxamido]-4,6-dihydropyrrolo[3,4-c]pyrazole-5(1H)-carboxamide], in experiment [1], the GI50 is ≤ 0.1 µM. The Ki on CDK7 was ≤ 0.05 µM. As to `CC[Si](C)(C)C1(C(=O)Nc2n[nH]c3c2CN(C(=O)Nc2ccccc2F)C3(C)C)CCC1` [IV-4, 3-[1-(Ethyldimethylsilyl)cyclobutanecarboxamido]-N-(2-fluorophenyl)-6,6-dimethyl-4,6-dihydropyrrolo[3,4-c]pyrazole-5(1H)-carboxamide], the GI50 in experiment [1] is ≤ 0.1 µM.

`CC1(C)c2[nH]nc(NC(=O)C3([Si](C)(C)C)CCC3)c2CN1C(=O)Nc1cccc(F)c1` [IV-5, N-(3-Fluorophenyl)-6,6-dimethyl-3-[1-(trimethylsilyl)cyclobutanecarboxamido]-4,6-dihydropyrrolo[3,4-c]pyrazole-5(1H)-carboxamide]: in experiment [1], the 50% growth inhibitory concentration (GI50) was ≤ 0.1 µM. On to `CC1(C)c2[nH]nc(NC(=O)C3([Si](C)(C)C)CCC3)c2CN1C(=O)Nc1ccc(F)cc1` [IV-7, N-(4-Fluorophenyl)-6,6-dimethyl-3-[1-(trimethylsilyl)cyclobutanecarboxamido]-4,6-dihydropyrrolo[3,4-c]pyrazole-5(1H)-carboxamide], for which the concentration for 50% growth inhibition (GI50) in experiment [1] is ≤ 0.1 µM. For the same compound, the Ki at CDK7 was ≤ 0.05 µM. For the compound `CC1(C)c2[nH]nc(NC(=O)C3([Si](C)(C)C)CCC3)c2CN1C(=O)Nc1cccc(Cl)c1` [IV-11, N-(3-Chlorophenyl)-6,6-dimethyl-3-[1-(trimethylsilyl)cyclobutanecarboxamido]-4,6-dihydropyrrolo[3,4-c]pyrazole-5(1H)-carboxamide], in experiment [1], the concentration for 50% growth inhibition (GI50) was ≤ 0.1 µM. In the case of `Cc1cccc(NC(=O)N2Cc3c(NC(=O)C4([Si](C)(C)C)CCC4)n[nH]c3C2(C)C)c1` [IV-23, 6,6-Dimethyl-N-(m-tolyl)-3-[1-(trimethylsilyl)cyclobutanecarboxamido]-4,6-dihydropyrrolo[3,4-c]pyrazole-5(1H)-carboxamide], the concentration for 50% growth inhibition (GI50) in experiment [1] was ≤ 0.1 µM. At CDK7, the Ki was ≤ 0.05 µM. With `Cc1ccc(NC(=O)N2Cc3c(NC(=O)C4([Si](C)(C)C)CCC4)n[nH]c3C2(C)C)cc1` [IV-25, 6,6-Dimethyl-N-(p-tolyl)-3-[1-(trimethylsilyl)cyclobutanecarboxamido]-4,6-dihydropyrrolo[3,4-c]pyrazole-5(1H)-carboxamide], the GI50 in experiment [1] is ≤ 0.1 µM. On to `CC1(C)c2[nH]nc(NC(=O)C3([Si](C)(C)C)CCC3)c2CN1C(=O)Nc1ccccc1C(F)(F)F` [IV-51, 6,6-Dimethyl-N-[2-(trifluoromethyl)phenyl]-3-[1-(trimethylsilyl)cyclobutanecarboxamido]-4,6-dihydropyrrolo[3,4-c]pyrazole-5 (1H)-carboxamide], for which the GI50 in experiment [1] was ≤ 0.1 µM. The inhibition constant Ki on CDK7 was ≤ 0.05 µM.

For `CC1(C)c2[nH]nc(NC(=O)C3([Si](C)(C)C)CCC3)c2CN1C(=O)Nc1ccccc1C#N` [IV-63, N-(2-Cyanophenyl)-6,6-dimethyl-3-[1-(trimethylsilyl)cyclobutanecarboxamido]-4,6-dihydropyrrolo[3,4-c]pyrazole-5(1H)-carboxamide], the GI50 in experiment [1] was ≤ 0.1 µM. For the same compound, at CDK7, the Ki is ≤ 0.05 µM. Take `COc1ccc(NC(=O)N2Cc3c(NC(=O)C4([Si](C)(C)C)CCC4)n[nH]c3C2(C)C)cc1` [IV-79, N-(4-Methoxyphenyl)-6,6-dimethyl-3-[1-(trimethylsilyl)cyclobutanecarboxamido]-4,6-dihydropyrrolo[3,4-c]pyrazole-5(1H)-carboxamide]: the GI50 in experiment [1] was ≤ 0.1 µM. For the same compound, the inhibition constant (Ki) at CDK7 is ≤ 0.05 µM.

Take `CCOc1ccccc1NC(=O)N1Cc2c(NC(=O)C3([Si](C)(C)C)CCC3)n[nH]c2C1(C)C` [IV-81, N-(2-Ethoxyphenyl)-6,6-dimethyl-3-[1-(trimethylsilyl)cyclobutanecarboxamido]-4,6-dihydropyrrolo[3,4-c]pyrazole-5(1H)-carboxamide]: the GI50 in experiment [1] was ≤ 0.1 µM. Consider `CC1(C)c2[nH]nc(NC(=O)C3([Si](C)(C)C)CCC3)c2CN1C(=O)Nc1ccccc1OC(F)(F)F` [IV-93, 6,6-Dimethyl-N-[2-(trifluoromethoxy)phenyl]-3-[1-(trimethylsilyl)cyclobutanecarboxamido]-4,6-dihydropyrrolo[3,4-c]pyrazole-5(1H)-carboxamide], for which the 50% growth inhibitory concentration (GI50) in experiment [1] is ≤ 0.1 µM. Also, the inhibition constant Ki at CDK7 was ≤ 0.05 µM. Regarding `Cc1cccc(NC(=O)N2Cc3c(NC(=O)C4([Si](C)(C)C)CCC4)n[nH]c3C2(C)C)c1F` [IV-123, N-(2-Fluoro-3-methylphenyl)-6,6-dimethyl-3-[1-(trimethylsilyl)cyclobutanecarboxamido]-4,6-dihydropyrrolo[3,4-c]pyrazole-5 (1H)-carboxamide], the GI50 in experiment [1] is ≤ 0.1 µM. On to `CC1(C)c2[nH]nc(NC(=O)C3([Si](C)(C)C)CCC3)c2CN1C(=O)Nc1cc(F)ccc1Cl` [IV-191, N-(2-Chloro-5-fluorophenyl)-6,6-dimethyl-3-[1-(trimethylsilyl)cyclobutanecarboxamido]-4,6-dihydropyrrolo[3,4-c]pyrazole-5 (1H)-carboxamide], for which the 50% growth inhibitory concentration (GI50) in experiment [1] is ≤ 0.1 µM.

In the case of `CC1(C)c2[nH]nc(NC(=O)C3([Si](C)(C)C)CCC3)c2CN1C(=O)Nc1cc(Cl)ccc1Cl` [IV-197, N-(2,5-Dichlorophenyl)-6,6-dimethyl-3-[1-(trimethylsilyl)cyclobutanecarboxamido]-4,6-dihydropyrrolo[3,4-c]pyrazole-5(1H)-carboxamide], the GI50 in experiment [1] is ≤ 0.1 µM. Regarding `Cc1ccc(Cl)c(NC(=O)N2Cc3c(NC(=O)C4([Si](C)(C)C)CCC4)n[nH]c3C2(C)C)c1` [IV-213, N-(2-Chloro-5-methylphenyl)-6,6-dimethyl-3-[1-(trimethylsilyl)cyclobutanecarboxamido]-4,6-dihydropyrrolo[3,4-c]pyrazole-5 (1H)-carboxamide], the GI50 in experiment [1] was ≤ 0.1 µM.

With `COc1ccc(Cl)c(NC(=O)N2Cc3c(NC(=O)C4([Si](C)(C)C)CCC4)n[nH]c3C2(C)C)c1` [IV-245, N-(2-Chloro-5-methoxyphenyl)-6,6-dimethyl-3-[1-(trimethylsilyl)cyclobutanecarboxamido]-4,6-dihydropyrrolo[3,4-c]pyrazole-5(1H)-carboxamide], the concentration for 50% growth inhibition (GI50) in experiment [1] is ≤ 0.1 µM. Regarding `CC1(C)c2[nH]nc(NC(=O)C3([Si](C)(C)C)CCC3)c2CN1C(=O)Nc1cccnc1` [IV-1019, 6,6-Dimethyl-N-(pyridin-3-yl)-3-[1-(trimethylsilyl)cyclobutanecarboxamido]-4,6-dihydropyrrolo[3,4-c]pyrazole-5(1H)-carboxamide], at CDK7, the inhibition constant (Ki) was ≤ 0.05 µM.
